Experimental data from ChEMBL document CHEMBL5724914, “Linking interpersonal differences in gut microbiota composition and drug biotransformation activity” (2024).

Experiments:
[1] = (§1) The drug is tested on WLS-038 corresponding to human gut metagenome with ENA study accession number: PRJEB37062 and ENA sample accession number: ERS12561745 for biotransformation under anaerobic condition. The drug concentrations were measured over 9 timepoints collected between 0 and 24 hours of incubation by liquid-chromatography-coupled mass spectrometry (LC–MS); settings: 2 µM
[2] = human gut metagenome, 24 h, 2 µM
[3] = as §1, with “Z-011” for “WLS-038”, “mouse” for “human”, “ERS12561811” for “ERS12561745”; settings: 2 µM
[4] = human gut metagenome, 24 h, 2 µM; remark: listed apart in the source
[5] = as §1, with “Z-016” for “WLS-038”, “mouse” for “human”, “ERS12561815” for “ERS12561745”; settings: 2 µM
[6] = as §1, with “Z-019” for “WLS-038”, “rat” for “human”, “ERS12561818” for “ERS12561745”; settings: 2 µM
[7] = as §1, with “Z-004” for “WLS-038”, “to” for “to human gut”, “ERS12561804” for “ERS12561745”; settings: 2 µM
[8] = as §1, with “WLS-098” for “WLS-038”, “ERS12561754” for “ERS12561745”; settings: 2 µM
[9] = human gut metagenome, 24 h, 2 µM; remark: listed apart in the source
[10] = as §1, with “Z-010” for “WLS-038”, “to” for “to human gut”, “ERS12561810” for “ERS12561745”; settings: 2 µM
[11] = human gut metagenome, 24 h, 2 µM; remark: listed apart in the source
[12] = as §1, with “Z-030” for “WLS-038”, “mouse” for “human”, “ERS12561829” for “ERS12561745”; settings: 2 µM
[13] = human gut metagenome, 24 h, 2 µM; remark: listed apart in the source
[14] = as §1, with “Z-027” for “WLS-038”, “to” for “to human gut”, “ERS12561826” for “ERS12561745”; settings: 2 µM
[15] = human gut metagenome, 24 h, 2 µM; remark: listed apart in the source
[16] = human gut metagenome, 24 h, 2 µM; remark: listed apart in the source
[17] = as §1, with “Z-028” for “WLS-038”, “mouse” for “human”, “ERS12561827” for “ERS12561745”; settings: 2 µM
[18] = human gut metagenome, 24 h, 2 µM; remark: listed apart in the source
[19] = as §1, with “WLS-240” for “WLS-038”, “ERS12561773” for “ERS12561745”; settings: 2 µM
[20] = human gut metagenome, 24 h, 2 µM; remark: listed apart in the source
Note: call rule not given here.

Structure (SMILES)	Bacterial Biotransformation [1]	Bacterial Biotransformation [2]	Bacterial Biotransformation [3]	Bacterial Biotransformation [4]	Bacterial Biotransformation [5]	Bacterial Biotransformation [6]	Bacterial Biotransformation [7]	Bacterial Biotransformation [8]	Bacterial Biotransformation [9]	Bacterial Biotransformation [10]	Bacterial Biotransformation [11]	Bacterial Biotransformation [12]	Bacterial Biotransformation [13]	Bacterial Biotransformation [14]	Bacterial Biotransformation [15]	Bacterial Biotransformation [16]	Bacterial Biotransformation [17]	Bacterial Biotransformation [18]	Bacterial Biotransformation [19]	Bacterial Biotransformation [20]
CC#C[C@]1(O)CC[C@H]2[C@@H]3CCC4=CC(=O)CCC4=C3[C@@H](c3ccc(N(C)C)cc3)C[C@@]21C [MIFEPRISTONE]	Compound metabolized	Compound NOT metabolized	Compound metabolized	Compound NOT metabolized	Compound metabolized	Compound NOT metabolized	Compound NOT metabolized	Compound NOT metabolized	Compound NOT metabolized	Compound metabolized	Compound metabolized	Compound NOT metabolized	Compound NOT metabolized	Compound NOT metabolized	Compound metabolized	Compound metabolized	Compound NOT metabolized	Compound metabolized	Compound metabolized	Compound metabolized
CC(C)(C)NCC(O)COc1cccc2c1CC(O)C(O)C2 (stereo not given) [NADOLOL]	Compound NOT metabolized	Compound metabolized	Compound metabolized	Compound NOT metabolized	Compound NOT metabolized	Compound NOT metabolized	Compound NOT metabolized	Compound metabolized	Compound NOT metabolized	Compound metabolized	Compound NOT metabolized	Compound NOT metabolized	Compound NOT metabolized	Compound NOT metabolized	Compound metabolized	Compound NOT metabolized	Compound NOT metabolized	Compound NOT metabolized	Compound metabolized	Compound NOT metabolized
CN(C)C(=O)Oc1cccc([N+](C)(C)C)c1.[Br-] [NEOSTIGMINE BROMIDE]	Compound NOT metabolized	Compound NOT metabolized	Compound NOT metabolized	Compound NOT metabolized	Compound NOT metabolized	Compound NOT metabolized	Compound NOT metabolized	Compound NOT metabolized	Compound NOT metabolized	Compound NOT metabolized	Compound NOT metabolized	Compound NOT metabolized	Compound NOT metabolized	Compound NOT metabolized	Compound NOT metabolized	Compound NOT metabolized	Compound NOT metabolized	Compound NOT metabolized	Compound NOT metabolized	Compound NOT metabolized
CC(=O)CCCCn1c(=O)c2c(ncn2C)n(C)c1=O [PENTOXIFYLLINE]	Compound NOT metabolized	Compound NOT metabolized	Compound NOT metabolized	Compound NOT metabolized	Compound NOT metabolized	Compound NOT metabolized	Compound NOT metabolized	Compound metabolized	Compound NOT metabolized	Compound NOT metabolized	Compound NOT metabolized	Compound NOT metabolized	Compound NOT metabolized	Compound NOT metabolized	Compound NOT metabolized	Compound NOT metabolized	Compound NOT metabolized	Compound NOT metabolized	Compound metabolized	Compound NOT metabolized
CCCN1C[C@H](CSC)C[C@@H]2c3cccc4[nH]cc(c34)C[C@H]21.CS(=O)(=O)O [PERGOLIDE MESYLATE]	Compound NOT metabolized	Compound NOT metabolized	Compound NOT metabolized	Compound NOT metabolized	Compound NOT metabolized	Compound NOT metabolized	Compound NOT metabolized	Compound NOT metabolized	Compound NOT metabolized	Compound NOT metabolized	Compound NOT metabolized	Compound NOT metabolized	Compound NOT metabolized	Compound NOT metabolized	Compound NOT metabolized	Compound NOT metabolized	Compound NOT metabolized	Compound NOT metabolized	Compound NOT metabolized	Compound NOT metabolized

Other lines, results leading:

Bacterial Biotransformation [1]	Bacterial Biotransformation [2]	Bacterial Biotransformation [3]	Bacterial Biotransformation [4]	Bacterial Biotransformation [5]	Bacterial Biotransformation [6]	Bacterial Biotransformation [7]	Bacterial Biotransformation [8]	Bacterial Biotransformation [9]	Bacterial Biotransformation [10]	Bacterial Biotransformation [11]	Bacterial Biotransformation [12]	Bacterial Biotransformation [13]	Bacterial Biotransformation [14]	Bacterial Biotransformation [15]	Bacterial Biotransformation [16]	Bacterial Biotransformation [17]	Bacterial Biotransformation [18]	Bacterial Biotransformation [19]	Bacterial Biotransformation [20]	Structure (SMILES)
Compound metabolized	Compound metabolized	Compound metabolized	Compound metabolized	Compound metabolized	Compound NOT metabolized	Compound NOT metabolized	Compound metabolized	Compound metabolized	Compound metabolized	Compound metabolized	Compound NOT metabolized	Compound metabolized	Compound metabolized	Compound metabolized	Compound metabolized	Compound NOT metabolized	Compound metabolized	Compound metabolized	Compound metabolized	CC(C)[C@H]1CC[C@H](C(=O)N[C@H](Cc2ccccc2)C(=O)O)CC1 [NATEGLINIDE]
Compound NOT metabolized	Compound metabolized	Compound NOT metabolized	Compound NOT metabolized	Compound metabolized	Compound NOT metabolized	Compound metabolized	Compound NOT metabolized	Compound NOT metabolized	Compound NOT metabolized	Compound NOT metabolized	Compound NOT metabolized	Compound NOT metabolized	Compound NOT metabolized	Compound NOT metabolized	Compound NOT metabolized	Compound NOT metabolized	Compound NOT metabolized	Compound NOT metabolized	Compound metabolized	Cc1ccccc1C(OCCN(C)C)c1ccccc1.O=C(O)CC(O)(CC(=O)O)C(=O)O (stereo not given) [ORPHENADRINE CITRATE]
Compound NOT metabolized	Compound metabolized	Compound NOT metabolized	Compound metabolized	Compound NOT metabolized	Compound NOT metabolized	Compound metabolized	Compound metabolized	Compound NOT metabolized	Compound metabolized	Compound metabolized	Compound NOT metabolized	Compound NOT metabolized	Compound NOT metabolized	Compound metabolized	Compound metabolized	Compound NOT metabolized	Compound metabolized	Compound metabolized	Compound metabolized	CC(C)(C)N.CCC[C@H](N[C@@H](C)C(=O)N1[C@H](C(=O)O)C[C@@H]2CCCC[C@@H]21)C(=O)OCC [PERINDOPRIL ERBUMINE]
